Test results reported in ChEMBL document CHEMBL1131821, “SAR in the alkoxy lactone series: the discovery of DFP, a potent and orally active COX-2 inhibitor” (Bioorg Med Chem Lett, 1999).

How the values were obtained:
[1] = biological target: T1, Prostaglandin G/H synthase 1 (Homo sapiens, UniProt P23219); assay: In vitro inhibitory activity against Prostaglandin G/H synthase 1 in human whole blood assay
[2] = biological target: T1, Prostaglandin G/H synthase 1; format: tissue-based, Blood
Description: Inhibitory activity against Prostaglandin G/H synthase 1 in human whole blood

Rattus norvegicus [3] = assay: In vivo effective concentration of compound in rat adjuvant arthritis; format: functional
Rattus norvegicus [4] = assay: In vivo effective concentration of compound in rat hyperalgesia; format: functional
Rattus norvegicus [5] = assay: In vivo effective concentration of compound in rat paw edema; format: functional
Rattus norvegicus [6] = assay: In vivo effective concentration of compound in rat pyresis; format: functional
[7] = biological target: T1, Prostaglandin G/H synthase 1; assay: Inhibitory activity against Human Cyclooxygenase-1 ( COX-1 ) in U937 Microsome COX-1 assay
[8] = biological target: T1, Prostaglandin G/H synthase 1; assay: Inhibitory activity against Human Prostaglandin G/H synthase 1 in U937 Microsome COX-1 assay
[9] = Half life the of compound was determined by ''Cr'' assay in rat at a dose of 10 mg/kg; format: ADME, organism-based; parameters: dose 10 mg/kg; conditions: in vivo
[10] = Maximal concentration (Cmax) in squirrel monkey plasma at a dose of 5 mg/kg; format: ADME, organism-based; parameters: dose 5 mg/kg
[11] = Maximal concentration (Cmax) in the rat plasma at a dose of 10 mg/kg; format: ADME, organism-based; parameters: dose 10 mg/kg
[12] = Maximal concentration (Cmax) in rhesus monkey plasma at a dose of 5 mg/kg; format: ADME, organism-based; parameters: dose 5 mg/kg; conditions: cercopithecidae
[13] = Half life the of compound was determined by ''Cr'' assay in squirrel monkey at a dose of 5 mg/kg; format: ADME, organism-based; parameters: dose 5 mg/kg; conditions: in vivo
[14] = Half life by ''Cr'' assay in rhesus monkey at a dose of 5 mg/kg; format: ADME, organism-based; parameters: dose 5 mg/kg; conditions: cercopithecidae, in vivo
[15] = Maximal concentration (Cmax) in dog plasma at a dose of […] mg/kg; format: ADME, organism-based, Canis lupus familiaris; conditions: 5 mg/kg
[16] = Half life by ''Cr'' assay in dog at a dose of 5 mg/kg; format: ADME, organism-based, Canis lupus familiaris; parameters: dose 5 mg/kg; conditions: in vivo
[17] = biological target: T1, Prostaglandin G/H synthase 1; assay: Inhibitory activity against Human Prostaglandin G/H synthase 1 in U937 Microsome COX-1 assay at a concentration of 30 uM

T1 sequence (P23219 whole entry): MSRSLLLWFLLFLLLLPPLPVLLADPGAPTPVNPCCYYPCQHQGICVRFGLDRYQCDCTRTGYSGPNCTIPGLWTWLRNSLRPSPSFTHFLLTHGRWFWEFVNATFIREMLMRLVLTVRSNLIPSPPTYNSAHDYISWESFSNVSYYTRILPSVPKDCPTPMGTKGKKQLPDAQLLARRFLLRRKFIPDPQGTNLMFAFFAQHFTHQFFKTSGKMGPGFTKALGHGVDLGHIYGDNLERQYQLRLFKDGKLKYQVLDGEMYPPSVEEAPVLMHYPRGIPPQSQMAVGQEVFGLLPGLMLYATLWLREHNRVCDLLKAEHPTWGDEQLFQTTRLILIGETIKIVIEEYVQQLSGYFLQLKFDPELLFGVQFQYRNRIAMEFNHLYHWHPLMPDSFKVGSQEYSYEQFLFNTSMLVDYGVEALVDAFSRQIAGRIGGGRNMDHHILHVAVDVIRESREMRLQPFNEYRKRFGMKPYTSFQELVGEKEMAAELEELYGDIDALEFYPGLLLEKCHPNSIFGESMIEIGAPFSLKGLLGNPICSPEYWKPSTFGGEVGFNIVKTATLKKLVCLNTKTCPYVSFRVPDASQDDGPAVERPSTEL

Compound: CC1(C)OC(=O)C(OC2CCCCC2)=C1c1ccc(S(C)(=O)=O)cc1
- IC50 [1]: > 58 µM

Compound: CCC(C)OC1=C(c2ccc(S(C)(=O)=O)cc2)C(C)(C)OC1=O (configuration not stated)
- IC50 [2]: 10 µM

Compound: COc1ccc2c(c1)c(CC(=O)O)c(C)n2C(=O)c1ccc(Cl)cc1 [INDOMETHACIN]
- ED50 (Rattus norvegicus [3]): 0.2 mg/kg
- ED50 (Rattus norvegicus [4]): 1.5 mg/kg
- ED50 (Rattus norvegicus [5]): 2 mg/kg
- ED50 (Rattus norvegicus [6]): 1.1 mg/kg

Compound: CCC(CC)OC1=C(c2ccc(S(C)(=O)=O)cc2)C(C)(C)OC1=O
- IC50 [2]: 39 µM

Compound: CC(OC1=C(c2ccc(S(C)(=O)=O)cc2)C(C)(C)OC1=O)C1CC1 (configuration not stated)
- IC50 [2]: 36 µM
- IC50 [7]: 6.5 µM

Compound: CC1(C)OC(=O)C(OCC2CC2)=C1c1ccc(S(C)(=O)=O)cc1 [FIROCOXIB]
- IC50 [8]: 25 µM
- IC50 [2]: > 100 µM

Compound: CC(C)OC1=C(c2ccc(S(C)(=O)=O)cc2)C(C)(C)OC1=O
- ED50 (Rattus norvegicus [3]): 0.15 mg/kg
- half-life [9]: 7.1 h
- Cmax [10]: 5.5 µM
- Cmax [11]: 15 µM
- IC50 [2]: > 100 µM
- ED50 (Rattus norvegicus [4]): 0.8 mg/kg
- ED50 (Rattus norvegicus [5]): 0.8 mg/kg
- Cmax [12]: 3 µM
- ED50 (Rattus norvegicus [6]): 0.3 mg/kg
- half-life [13]: 1.4 h
- half-life [14]: 2 h
- Cmax [15]: 12 µM
- half-life [16]: 4.8 h
- inhibition [17]: 32%

Compound: CC1(C)OC(=O)C(OC2CCCC2)=C1c1ccc(S(C)(=O)=O)cc1
- IC50 [2]: > 100 µM

Compound: CC1(C)OC(=O)C(OC2CCC2)=C1c1ccc(S(C)(=O)=O)cc1
- IC50 [2]: 30 µM
